From patent US9701962B2, “Hydrophobically modified antisense oligonucleotides comprising a ketal group” (Institut National de la Sante et de la Recherche Medicale …, priority 2013, dated 2017)
Strand notation (5' to 3'): a small letter for the sugar, then the base; units joined by * are phosphorothioate-linked, units joined directly phosphodiester-linked; [ ] holds rarer units or linkages, { } end groups; capitals alone tell only the bases. {(C15)2U} = uridine bearing a ketal whose carbon carries two C15 hydrocarbon chains (palmitone ketal); {C8F17} = hydrophobic mono-chain with C8F17 fluorocarbon moiety; d = 2'-deoxy (DNA)

How the values were obtained:
[1] = test system: TCTP protein and cell growth; experiment: Screening of ASOs targeting TCTP mRNA for the lead sequence; format: cell-based, human; conditions: 15 sequences tested
Procedure: The design, synthesis and screening of ASOs targeting TCTP mRNA were performed to determine the lead sequence. Among the 27 sequences, 12 were withdrawn (lack of specificity, high GC percentage) and 15 have been tested among which, 3 have been selected (#10 of sequence SEQ ID NO: 2, #14 of sequence SEQ ID NO: 7, #15 of sequence SEQ ID NO: 6) for their efficiency to inhibit TCTP protein and cell growth.

cell membrane = experiment: Penetration of the cell membrane; format: cell-based; conditions: compared with ASO#15PTO
TCTP protein = TCTP protein expression by western blot in transfected PC-3 cells; format: cell-based, human; conditions: for inhibition of TCTP protein expression over a long period: 6 days after transfection
Procedure: The CR prostate cancer cell line PC-3 was purchased from the American Type Culture Collection (Rockville, Md., USA). The cells were maintained in Dulbecco's Modified Eagle's Medium (Invitrogen, Cergy Pontoise, France), supplemented with 10% fetal calf serum (FCS).
Prostatic cell line were transfected with ASO#15PD, ASO#15PTO, LASO#15PD, LASO#15PTO and LASO#15LNA at various concentrations (from 30 nM to 100 nM), in OptiMEM® medium (Invitrogen), without serum and in the presence or not of Oligofectamine™ transfection reagent (Invitrogen), according to the manufacturer's instructions.
Serum was added 4 hours after transfection. Two or three days after transfection, the level of TCTP protein expression and GAPDH (used as housekeeping gene) were determined by performing western blotting.
Western Blot analysis was performed as described previously (Rocchi et al., 2004, Cancer Res. 64:6595-602) with 1:2000 rabbit TCTP polyclonal antibody (Abcam Inc., Cambridge, UK). Loading levels were normalized using 1:5000 rabbit anti-glyceraldehyde-3-phosphate dehydrogenase polyclonal (Abcam Inc.).
Prostatic cell line were transfected with FASO#15PTO at 100 nM, in OptiMEM® medium (Invitrogen), without serum and in the presence or not of Oligofectamine™ transfection reagent (Invitrogen), according to the manufacturer's instructions.

Substance	efficiency to inhibit TCTP protein and cell growth [1]	inhibition of TCTP protein expression over a long period (TCTP protein)	also measured
5′-AACTTGTTTCCTGCAGGTGA-3′ (antisense (5'-AACTTGTTTCCTGCAGGTGA-3'); as printed in the source, key not given here) [#15]	selected		
5′-ACCAATGAGCGAGTCATCAA-3′ (antisense (5'-ACCAATGAGCGAGTCATCAA-3'); as printed in the source, key not given here) [#10]	selected		
5′-TGGTTCATGACAATATCGAC-3′ (antisense (5'-TGGTTCATGACAATATCGAC-3'); as printed in the source, key not given here) [#14]	selected		
(C15)2U*5′AAC TTG TTT CCT GCA GGT GA3′ (DNA {(C15)2U}*dA*dA*dC*dT*dT*dG*dT*dT*dT*dC*dC*dT*dG*dC*dA*dG*dG*dT*dG*dA) [LASO#15PTO]		strong to complete inhibition	speed of penetrating the cell membrane (cell membrane): more quickly than ASO#15PTO; inhibition of TCTP protein expression (TCTP protein; PC-3, in absence of transfection agent, 3 days after transfection): able to inhibit; inhibition of TCTP protein expression (TCTP protein; PC-3, in the presence of Oligofectamine, 30-100 nM, 2 or 3 days after transfection): most efficient
ASO#15PTO: DNA of sequence SEQ ID NO: 6 with a phosphorothiorate backbone (DNA dA*dA*dC*dT*dT*dG*dT*dT*dT*dC*dC*dT*dG*dC*dA*dG*dG*dT*dG*dA) [reference compound]		not the case	
Flurocarbon 5′AAC TTG TTT CCT GCA GGT GA3′ (DNA {C8F17}-dA*dA*dC*dT*dT*dG*dT*dT*dT*dC*dC*dT*dG*dC*dA*dG*dG*dT*dG*dA) [FASO#15PTO, reference compound]			inhibition of TCTP protein expression (TCTP protein; PC-3, 100 nM, absence of Oligofectamine, 3 days after transfection): incapable of inhibiting; inhibition of TCTP protein expression (TCTP protein; PC-3, 100 nM, presence of Oligofectamine, 3 days after transfection): incapable of inhibiting
